Consider two compounds from patent US20250304578A1, “NITROGEN-CONTAINING FUSED HETEROCYCLIC COMPOUNDS OF N-SULFONAMIDE AND USE THEREOF” (NUTSHELL THERAPEUTICS (SHANGHAI) CO., LTD., priority 2023, published 2025).

The nature of data set [1]: Metabolic stability test in hepatocytes. It counts as in vitro ADME. The note with it: cryopreserved hepatocytes in suspension; for hepatocyte CLint at 1 μM: read-out: In vitro Clint (μL/min/10^6 cells); for half-life at 1 μM: read-out: In vitro t1/2. As to the method:
The test compound and the control drug verapamil powder were prepared into a high concentration stock solution using DMSO, and diluted to a 100 μM working solution with 50% acetonitrile/water before use, with final concentrations of 1 μM for the test compound and verapamil.
• 1) 49.5 mL of Williams' Medium E and 0.5 mL GlutaMAX were mixed as the incubation solution. The hepatocyte recovery solution and the incubation solution were pre-warmed in a 37° C. water bath for at least 15 minutes prior to use. • 2) A tube of cryopreserved hepatocytes was taken, ensuring that the hepatocytes were still in a cryogenic frozen state prior to resuscitation. The hepatocytes were quickly placed in a 37° C. water bath and gently shaken until all ice crystals were completely dispersed, sprayed with 70% ethanol and transferred to a biosafety cabinet. • 3) The contents of the hepatocyte tube were poured into a centrifuge tube containing 50 mL of recovery medium, which were centrifuged at 100 g for 10 minutes. After centrifugation, the recovery medium was aspirated, and sufficient incubation medium was added to obtain a cell suspension having a cell density of approximately 1.5×10^6 cells/mL. • 4) Cellometer Vision was used to count hepatocytes and determine the density of viable cells. The survival rate of hepatocytes must be greater than 75%. The hepatocyte suspension was diluted with incubation medium to a viable cell density of 0.5×10^6 cells/mL. • 5) A portion of hepatocyte suspension with a density of 0.5×10^6 cells/mL was boiled in water for 5 minutes to inactivate as a negative control. After cells were inactivated, substrate conversion mediated by non-cellular enzymes could be easily investigated.
• 1) 198 μL of the suspension of live or inactivated cells was transferred to a 96-well deep-well plate, which was then placed on a vortexer and preheated in an incubator for 10 minutes. Live cells were incubated in duplicate, while inactivated cells were incubated in single. • 2) 2 μL of 100 μM test compound or verapamil was added to each well for the reaction initiation, and the deep-well plate was placed back on the incubator vortexer. • 3) 25 μL of the suspension were taken from the incubated samples at 0, 15, 30, 60, 90, and 120 minutes, respectively, and added to 150 μL of acetonitrile containing internal standards (200 nM alprazolam, 200 nM labetalol, 2 μM ketoprofen, and 200 nM caffeine) to terminate the reaction. The mixture was vortexed for 10 minutes and centrifuged at 3220 g and 4° C. for 30 minutes. After centrifugation was completed, 100 μL of the supernatant and 100 μL of ultra-pure water were mixed well for UPLC-MS/MS analysis detection.
All data calculations were performed using Microsoft Excel software. Peak areas were detected by extracting the ion chromatogram. The in vitro half-life (t1/2) of the parent drug was detected by linear fitting of the natural logarithm of the percentage of parent drug […] with time.
The in vitro half-life (t1/2) was calculated by the slope: […]
In vitro intrinsic clearance (unit μL/min/10^6 cells) was calculated using the following formula:
[formula] • V=incubation volume per well (0.2 mL); • N=number of cells per well (0.1×10^6 cells)

Another data set relates to NUGC-3 cells. Briefly: Anti-proliferation effect on NUGC-3 cells (Cell Counting Kit-8). It counts as cell-based. Particulars: Homo sapiens, NUGC-3, 120 h; 5 days of treatment. The protocol: Cell line NUGC-3 (JCRB, JCRB0822) was cultured in RPMI 1640 (Invitrogen, 11875-085) medium supplemented with 10% (v/v) fetal bovine serum (BI, 04-002-1A), according to the standard instructions of the American Type Culture Collection. The cell line was authenticated by short tandem repeat profiling.
In the proliferation assay, 1000 NUGC-3 cells were seeded in a 96-well flat clear bottom, TC-treated plate (Corning, 3903) in 200 μL of medium per well, and allowed to recover overnight in culture medium. Compounds were added with increasing concentration, with DMSO treatment serving as a […] control. After 5 days of treatment, the plate was equilibrated to room temperature for 30 minutes, and the number of living cells was measured by the addition of the Cell Counting Kit-8 reagent (MCE, HY-K0301). Absorbance was measured on an Enspire (Perkin elme). The relative viability of each group was presented as the percentage change relative to the […] control group and then fit to a four-parameter logit non-linear curve using the program XLFit (IDBS)
(In general: Tetrazolium dyes change colour on reduction, which living cells bring about.)

In another data set the test system is CYP3A4/5. Briefly: Multi-concentration inhibitory activity curve of CYP3A4/5 enzymes. Particulars: human liver microsomes. The class given is in vitro ADME. As to the method:
The buffer was filtered through a 0.45 μm filter.
Liver microsome working solution (final system concentration of 0.5 mg/mL) was prepared. […] The above stock solution was diluted with acetonitrile (4-fold dilution, 6 non-zero concentrations).
The half-maximal inhibitory concentration (IC50) was calculated using Graph Pad Prism.
A general note: Liver microsomes are a subcellular fraction often used to study metabolism.

Setting [2] is: pH 7.4, probe midazolam, substrate midazolam, read-out: CYP3A4/5 IC50 (μM) (Midazolam).
Setting [3] is: pH 7.4, probe testosterone, substrate testosterone, read-out: CYP3A4/5 IC50 (μM) (Testosterone).

The structures appear in SMILES notation. Like-named read-outs stand apart in the source and are kept apart here. A value given as a limit tells only on which side of the number the result lay.

On to `COc1nc(C(=O)NS(C)(=O)=O)ccc1NCC#Cc1cc2c(N[C@@H]3CCN(C)C[C@@H]3F)cccn2c1CC(F)(F)F` [Cpd-1, 5-((3-(8-(((3S,4R)-3-Fluoro-1-methylpiperidin-4-yl)amino)-3-(2,2,2-trifluoroethyl)indolizin-2-yl)prop-2-yn-1-yl)amino)-6-methoxy-N-(methylsulfonyl)picolinamide], for which the hepatocyte CLint at 1 μM in data set [1] (Human hepatocytes), in data set [1] (Mouse hepatocytes) and in data set [1] (Rat hepatocytes) was less than 2.7 µL/min/1e6 cells each time. In addition, the half-life at 1 μM in data set [1] (Human hepatocytes), in data set [1] (Mouse hepatocytes) and in data set [1] (Rat hepatocytes) was more than 8.52 h throughout. The compound further displayed an IC50 with NUGC-3 cells of 0.1 µM. In addition, the IC50 at 10 min with CYP3A4/5 (setting [2]) and with CYP3A4/5 (setting [3]) was more than 50 µM each time.
As to `[2H]C([2H])([2H])Oc1nc(C(=O)NS(C)(=O)=O)ccc1NCC#Cc1cc2c(N[C@@H]3CCN(C)C[C@@H]3F)cccn2c1CC(F)(F)F` [Cpd-2, 5-((3-(8-(((3S,4R)-3-Fluoro-1-methylpiperidin-4-yl)amino)-3-(2,2,2-trifluoroethyl)indolizin-2-yl)prop-2-yn-1-yl)amino)-6-(methoxy-d3)-N-(methylsulfonyl)picolinamide], the hepatocyte CLint at 1 μM in data set [1] (Human hepatocytes), in data set [1] (Mouse hepatocytes) and in data set [1] (Rat hepatocytes) was less than 2.7 µL/min/1e6 cells throughout. The half-life at 1 μM in data set [1] (Human hepatocytes), in data set [1] (Mouse hepatocytes) and in data set [1] (Rat hepatocytes) was more than 8.52 h each time. Moreover, the IC50 with NUGC-3 cells came to 0.058 µM. In addition, the IC50 at 10 min with CYP3A4/5 (setting [2]) and in the data set on CYP3A4/5 (setting [3]) was more than 50 µM throughout.
